Where a name gives a salt, the structure may show the parent alone.
How the values were obtained:
[1] = molecular target: human PI3K(p110α/p85α) (Homo sapiens, UniProt P42336); experiment: Measurement of PI3K inhibitory activity (AlphaScreen GST Detection Kit); format: biochemical; conditions: 10 μM ATP, 4 μM PI(4,5)P2, read-out: Enzyme inhibitory activity (IC50, μM) PI3K α
Procedure: The inhibitory activity of compounds of the present invention represented by formula (I) were measured with human PI3K(p110α/p85α) prepared in a baculovirus expression system using the AlphaScreen GST Detection Kit (Perkin Elmer, Inc.). A predetermined concentration of the compound dissolved in dimethylsulfoxide (DMSO) and PI3K were mixed in a 384-well assay plate and after allowing to stand for 20 minutes at room temperature, 4 μM PI(4,5)P2 (Echelon Corporation) and 10 μM ATP (5 mM Hepes, pH 7.5, 2.5 mM MgCl2) were added to initiate the reaction. After reacting for 15 minutes at 37° C., GST-GRP1 expressed and purified from Escherichia coli, Anti-GST Acceptor Beads (Perkin Elmer, Inc.), Streptavidin Donor Beads (Perkin Elmer, Inc.) and biotin-PI(3,4,5) P3 (Echelon Corporation) (10 mM Tris-HCl pH 7.4, 150 mM NaCl, 7.5 mM EDTA, 1 mM DTT, 0.1% Tween 20) were added, and after allowing to stand for 1 hour at room temperature, light at 520 to 620 nm emitted as a result of exciting with light at 680 nm was measured with the Envision measuring instrument (Perkin Elmer, Inc.).
Test Example 1 described above can be performed according to “Analytical Biochemistry, 2003, 313, 234-245; Alexander Gray et al”.

[2] = test system: human colon cancer cell line HCT116; experiment: Cell proliferation inhibitory activity (Cell Counting Kit-8), colon cancer HCT116; format: cell-based; conditions: HCT-116, 96 h, HCT116, 4 days
Procedure: (§1) The cell proliferation inhibitory activity was measured for compounds of the present invention represented by formula (I). Cancer cell proliferation inhibitory activity was measured using the Cell Counting Kit-8 (Dojindo). 2000 cells each of human colon cancer cell line HCT116 purchased from the American Type Culture Collection (Virginia, USA) were seeded into each well of a 96-well culture plate followed by the addition of a predetermined concentration of the compounds and cultivating in a CO2environment for 4 days at 37° C. On the fourth day of cultivating, the Cell Counting Kit-8 solution was added and absorbance (measuring wavelength: 450 nm, reference wavelength: 615 nm) was measured in accordance with the protocol provided with the kit.

[3] = test system: human prostate cancer cell line PC3; experiment: Cell proliferation inhibitory activity (Cell Counting Kit-8), prostate cancer PC3; format: cell-based; conditions: 96 h, PC3, 4 days
Procedure: as §1
(§2) Cancer cell proliferation inhibitory activity was also measured for human lung cancer cell line NCI-H460 and human prostate cancer cell line PC3 purchased from the American Type Culture Collection. 1000 and 3000 cells of NCI-H460 and PC3, respectively, were seeded into each well of a 96-well culture plate followed by testing in the same manner as the human colon cancer cell line and calculating the percentage of cell proliferation inhibition at 2.5 μM.

[4] = test system: human lung cancer cell line NCI-H460; experiment: Cell proliferation inhibitory activity (Cell Counting Kit-8), lung cancer NCI-H460; format: cell-based; conditions: 96 h, NCI-H460, 4 days, read-out: Cell proliferation inhibitory activity (% Inhibition at 2.5 μM) Non-small cell lung cancer (NCI-H460)
Procedure: as §1, §2

Chain of human PI3K(p110α/p85α) (P42336 whole entry): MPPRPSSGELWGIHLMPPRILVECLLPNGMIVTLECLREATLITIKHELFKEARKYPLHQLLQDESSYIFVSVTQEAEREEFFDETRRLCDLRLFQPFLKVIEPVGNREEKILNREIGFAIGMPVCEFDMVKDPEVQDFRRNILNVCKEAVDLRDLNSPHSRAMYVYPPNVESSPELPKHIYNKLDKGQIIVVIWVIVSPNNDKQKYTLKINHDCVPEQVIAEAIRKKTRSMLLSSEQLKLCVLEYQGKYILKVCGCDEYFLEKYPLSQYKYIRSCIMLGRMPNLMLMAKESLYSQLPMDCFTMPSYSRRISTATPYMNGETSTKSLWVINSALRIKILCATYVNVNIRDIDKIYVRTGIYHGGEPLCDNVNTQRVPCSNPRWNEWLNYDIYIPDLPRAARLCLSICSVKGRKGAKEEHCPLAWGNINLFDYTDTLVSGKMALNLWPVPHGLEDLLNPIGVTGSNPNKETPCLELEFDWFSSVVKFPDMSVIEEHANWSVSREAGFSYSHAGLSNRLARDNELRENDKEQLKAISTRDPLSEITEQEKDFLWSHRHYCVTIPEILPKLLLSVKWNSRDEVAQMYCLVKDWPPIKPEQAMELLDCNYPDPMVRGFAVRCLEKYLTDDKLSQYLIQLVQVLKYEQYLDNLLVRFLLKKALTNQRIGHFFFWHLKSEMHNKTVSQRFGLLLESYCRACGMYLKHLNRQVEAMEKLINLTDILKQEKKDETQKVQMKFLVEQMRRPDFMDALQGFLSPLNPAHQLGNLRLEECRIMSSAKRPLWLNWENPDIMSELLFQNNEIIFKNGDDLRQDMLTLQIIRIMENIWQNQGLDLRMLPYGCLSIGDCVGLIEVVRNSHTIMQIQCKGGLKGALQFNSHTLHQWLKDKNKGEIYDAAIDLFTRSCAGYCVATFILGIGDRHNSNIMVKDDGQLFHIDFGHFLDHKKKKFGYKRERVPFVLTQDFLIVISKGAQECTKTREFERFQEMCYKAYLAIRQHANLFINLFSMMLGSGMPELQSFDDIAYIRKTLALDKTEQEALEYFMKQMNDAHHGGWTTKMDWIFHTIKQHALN
Chain of human PI3K(p110α/p85α) (P27986 whole entry partner): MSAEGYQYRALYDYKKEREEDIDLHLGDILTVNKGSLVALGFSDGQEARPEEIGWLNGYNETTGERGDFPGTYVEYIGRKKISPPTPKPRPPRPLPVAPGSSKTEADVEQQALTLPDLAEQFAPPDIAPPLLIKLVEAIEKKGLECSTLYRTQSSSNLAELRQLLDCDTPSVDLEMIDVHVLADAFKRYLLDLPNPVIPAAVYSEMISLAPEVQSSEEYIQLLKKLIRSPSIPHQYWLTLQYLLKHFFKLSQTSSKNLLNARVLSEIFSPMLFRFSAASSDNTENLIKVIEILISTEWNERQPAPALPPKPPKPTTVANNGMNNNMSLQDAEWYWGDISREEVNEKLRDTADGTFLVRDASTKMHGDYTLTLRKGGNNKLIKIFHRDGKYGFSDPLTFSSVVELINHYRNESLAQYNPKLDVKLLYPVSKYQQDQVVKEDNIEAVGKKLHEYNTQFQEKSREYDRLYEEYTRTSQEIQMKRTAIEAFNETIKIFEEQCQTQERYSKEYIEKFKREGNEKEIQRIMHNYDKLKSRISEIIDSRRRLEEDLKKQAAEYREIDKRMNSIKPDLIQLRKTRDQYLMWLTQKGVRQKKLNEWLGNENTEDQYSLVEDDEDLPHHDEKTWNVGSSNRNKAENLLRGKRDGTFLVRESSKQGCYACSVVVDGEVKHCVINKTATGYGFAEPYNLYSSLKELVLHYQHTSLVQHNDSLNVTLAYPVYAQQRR

IC50 [1]	SMILES	inhibition at 2.5 µM [2]	inhibition at 2.5 µM [3]	inhibition at 2.5 µM [4]
0.009 µM	Oc1cccc(-c2nc(N3CCOCC3)nc3c2CCN3c2ccncc2)c1 [Example A-09, 3-(2-Morpholin-4-yl-7-pyridin-4-yl-6,7-dihydro-5H-pyrrolo[2,3-d]pyrimidin-4-yl)-phenol]	83%	96%	84%
0.08 µM	Oc1cccc(-c2nc(N3CCOCC3)nc3c2CCN3c2ccc3[nH]cnc3c2)c1 [Example A-14, 3-[7-(1H-benzimidazol-5-yl)-2-morpholin-4-yl-6,7-dihydro-5H-pyrrolo[2,3-d]pyrimidin-4-yl]-phenol]	76%	98%	95%
0.24 µM	Oc1cc(-c2nc(N3CCOCC3)nc3c2CCN3c2ccncc2)ccc1F [Example A-32, 2-Fluoro-5-(2-morpholin-4-yl-7-pyridin-4-yl-6,7-dihydro-5H-pyrrolo[2,3-d]pyrimidin-4-yl)-phenol trifluoroacetic acid salt]	81%	81%	79%
0.05 µM	Oc1cccc(-c2nc(N3CCOCC3)nc3c2CCN3c2ccnc(N3CCOCC3)c2)c1 [Example A-44, 3-[2-Morpholin-4-yl-7-(2-morpholin-4-yl-pyridin-4-yl)-6,7-dihydro-5H-pyrrolo[2,3-d]pyrimidin-4-yl]-phenol]	69%	79%	82%
0.02 µM	CS(=O)(=O)Nc1cccc(N2CCc3c(-c4cccc(O)c4)nc(N4CCOCC4)nc32)c1 [Example A-48, N-{3-[4-(3-hydroxy-phenyl)-2-morpholin-4-yl-5,6-dihydro-pyrrolo[2,3-d]pyrimidin-7-yl]-phenyl}-methane sulfonamide trifluoroacetic acid salt]	55%	62%	67%
0.03 µM	Nc1ncc(-c2nc(N3CCOCC3)nc3c2CCN3c2cccnc2)cn1 [Example B-02, 5-(2-Morpholin-4-yl-7-pyridin-3-yl-6,7-dihydro-5H-pyrrolo[2,3-d]pyrimidin-4-yl)-pyrimidin-2-ylamine]	87%	96%	95%
0.24 µM	Nc1ccc(-c2nc(N3CCOCC3)nc3c2CCN3c2ccncc2)cn1 [Example B-03, 5-(2-Morpholin-4-yl-7-pyridin-4-yl-6,7-dihydro-5H-pyrrolo[2,3-d]pyrimidin-4-yl)-pyridin-2-ylamine]	100%	95%	97%
0.26 µM	COc1ncc(-c2nc(N3CCOCC3)nc3c2CCN3c2cccnc2)c(OC)n1 [Example B-09, 4-(2,4-Dimethoxy-pyrimidin-5-yl)-2-morpholin-4-yl-7-pyridin-3-yl-6,7-dihydro-5H-pyrrolo[2,3-d]pyrimidine]	45%	56%	67%
0.3 µM	c1cc(N2CCc3c(-c4ccc5[nH]cnc5c4)nc(N4CCOCC4)nc32)ccn1 [Example B-22, 4-(1H-benzimidazol-5-yl)-2-morpholin-4-yl-7-pyridin-4-yl-6,7-dihydro-5H-pyrrolo[2,3-d]pyrimidine]	71%	22%	72%
0.47 µM	NCc1ccc(-c2nc(N3CCOCC3)nc3c2CCN3c2ccncc2)cc1 [Example B-32, 4-(2-Morpholin-4-yl-7-pyridin-4-yl-6,7-dihydro-5H-pyrrolo[2,3-d]pyrimidin-4-yl)-benzylamine hydrochloride]	78%	29%	67%
0.87 µM	OCc1cc(-c2nc(N3CCOCC3)nc3c2CCN3c2ccncc2)ccc1F [Example B-35, [2-Fluoro-5-(2-morpholin-4-yl-7-pyridin-4-yl-6,7-dihydro-5H-pyrrolo[2,3-d]pyrimidin-4-yl)-phenyl]-methanol]	78%	61%	71%
0.34 µM	Nc1ccc(-c2nc(N3CCOCC3)nc3c2CCN3c2ccncc2)nc1 [Example B-55, 6-(2-Morpholin-4-yl-7-pyridin-4-yl-6,7-dihydro-5H-pyrrolo[2,3-d]pyrimidin-4-yl)-pyridin-3-ylamine]	79%	47%	58%
0.05 µM	CNC(=S)N1CCc2c(-c3cccc(O)c3)nc(N3CCOCC3)nc21 [Example C-55, 4-(3-Hydroxy-phenyl)-2-morpholin-4-yl-5,6-dihydro-pyrrolo[2,3-d]pyrimidine-7-carbothioic acid methylamide trifluoroacetic acid salt]	72%	87%	89%
0.04 µM	CC(=O)N1CCc2c(-c3cnc(N)nc3)nc(N3CCOCC3)nc21 [Example D-01, 1-[4-(2-Amino-pyrimidin-5-yl)-2-morpholin-4-yl-5,6-dihydro-pyrrolo[2,3-d]pyrimidin-7-yl]-ethanone]	83%	89%	92%
	CS(=O)(=O)N1CCc2c(-c3cnc(N)nc3)nc(N3CCOCC3)nc21 [Example D-02, 5-(7-Methanesulfonyl-2-morpholin-4-yl-6,7-dihydro-5H-pyrrolo[2,3-d]pyrimidin-4-yl)-pyrimidin-2-ylamine]	81%	87%	83%
0.02 µM	CCNC(=O)N1CCc2c(-c3cnc(N)nc3)nc(N3CCOCC3)nc21 [Example D-03, 4-(2-Amino-pyrimidin-5-yl)-2-morpholin-4-yl-5,6-dihydro-pyrrolo[2,3-d]pyrimidine-7-carboxylic acid ethylamide]	92%	88%	92%
0.23 µM	Nc1ncc(-c2nc(N3CCOCC3)nc3c2CCN3c2cc(C(=O)N3CCOCC3)ccc2F)cn1 [Example D-16, {3-[4-(2-Amino-pyrimidin-5-yl)-2-morpholin-4-yl-5,6-dihydro-pyrrolo[2,3-d]pyrimidin-7-yl]-4-fluoro-phenyl}-morpholin-4-yl-methanone]	74%	73%	76%
0.024 µM	CCN1CCN(C(=O)c2ccc(C)c(NC(=S)N3CCc4c(-c5cnc(N)nc5)nc(N5CCOCC5)nc43)c2)CC1 [Example D-17, 4-(2-Amino-pyrimidin-5-yl)-2-morpholin-4-yl-5,6-dihydro-pyrrolo[2,3-d]pyrimidine-7-carbothioic acid [5-(4-ethyl-piperazine-1-carbonyl)-2-methyl-phenyl]-amide]	96%	93%	97%
0.022 µM	CCN1CCN(c2cc(F)c(NC(=O)N3CCc4c(-c5cnc(N)nc5)nc(N5CCOCC5)nc43)c(F)c2)CC1 [Example D-18, 4-(2-Amino-pyrimidin-5-yl)-2-morpholin-4-yl-5,6-dihydro-pyrrolo[2,3-d]pyrimidine-7-carboxylic acid [4-(4-ethyl-piperazin-1-yl)-2,6-difluoro-phenyl]-amide]	100%	93%	102%
0.06 µM	Nc1ncc(-c2nc(N3CCOCC3)nc3c2CCN3c2ccc(C(=O)NCc3cccnc3)cc2)cn1 [Example D-19, 4-[4-(2-Amino-pyrimidin-5-yl)-2-morpholin-4-yl-5,6-dihydro-pyrrolo[2,3-d]pyrimidin-7-yl]-N-pyridin-3-ylmethyl-benzamide]	73%	102%	97%
	Nc1ncc(-c2nc(N3CCOCC3)nc3c2CCN3c2ccc(CN3CCN(CCCCF)CC3)cc2)cn1 [Example D-330, 5-(7-{4-[4-(4-fluorobutyl)-piperazin-1-ylmethyl]-phenyl}-2-morpholin-4-yl-6,7-dihydro-5H-pyrrolo[2,3-d]pyrimidin-4-yl)-pyrimidin-2-ylamine]	25%	0%	-13%
